Some results are limits rather than exact numbers.

A short description of the first test: Antimicrobial activity assay: whole-cell MIC by broth microdilution (NCCLS M7-A6). The format is cell-based.
Conditions: not given
The method, then: Whole-cell antimicrobial activity was determined by broth microdilution using the National Committee for Clinical Laboratory Standards (NCCLS) recommended procedure, Document M7-A6, “Methods for Dilution Susceptibility Tests for Bacteria that Grow Aerobically”. The compounds were tested in serial two-fold dilutions ranging from 0.016 to 16 mcg/mL. Compounds were evaluated against a panel of Gram-positive organisms, including Staphylococcus aureus WCUH29, Streptococcus pneumoniae 1629, Streptococcus pyogenes CN 10, and Enterococcus faecalis 2. In addition, compounds were evaluated against a panel of Gram-negative strains including Haemophilus influenzae NEMC1, E. coli 7623, and Moraxella catarrhalis Ravasio. The minimum inhibitory concentration (MIC) was determined as the lowest concentration of compound that inhibited visible growth. A mirror reader was used to assist in determining the MIC endpoint.
Compounds of the present invention have MIC's ≦20 μg/ml versus all the organisms named above.
Background: Dilution methods test growth across graded concentrations, often in twofold steps.
`COc1ccc2ncc(F)c(CCN3CCC(NCc4ccc5c(n4)NCCS5)CC3)c2c1.Cl.Cl` [Example 81, N-(3,4-dihydro-2H-pyrido[3,2-b][1,4]thiazin-6-ylmethyl)-1-{2-[3-fluoro-6-(methoxy)-4-quinolinyl]ethyl}-4-piperidinamine dihydrochloride] displayed an MIC of at most 2 µg/mL.

The test is the same for the next values; noted with them: versus all the organisms named above (S. aureus WCUH29, S. pneumoniae 1629, S. pyogenes CN 10, E. faecalis 2, H. influenzae NEMC1, E. coli 7623, M. catarrhalis Ravasio); read-out: MIC.
On to `COc1cc(F)c2ncc(F)c(CCN3CCC(NCc4cnc5c(c4)NC(=O)CS5)CC3)c2c1.Cl.Cl` [Example 48, 7-{[(1-{2-[3,8-Difluoro-6-(methoxy)-4-quinolinyl]ethyl}-4-piperidinyl)amino]methyl}-1H-pyrido[2,3-b][1,4]thiazin-2(3H)-one dihydrochloride], for which the MIC was at most 2 µg/mL.

For `COc1ccc2ncc(Cl)c(CCN3CC[C@@H](NCc4ccc5c(n4)NC(=O)CO5)[C@H](O)C3)c2c1.Cl.Cl.Cl` (single isomer, unassigned; enantiomer 2) [Example 18, 6-({(trans)-1-[2-(3-Chloro-6-methoxyquinolin-4-yl)ethyl]3-hydroxypiperidin-4-ylamino}methyl)-4H-pyrido[3,2-b][1,4]oxazin-3-one Trihydrochloride enantiomer 2], the MIC was at most 2 µg/mL.

Turning to `COc1ccc2ncc(Cl)c(CCN3CCC(NCc4cc5c(cn4)OCCO5)CC3)c2c1.Cl.Cl` [Example 4, {1-[2-(3-Chloro-6-methoxy-quinolin-4-yl)-ethyl]-piperidin-4-yl}-(2,3-dihydro-[1,4]dioxino[2,3-c]pyridin-7-ylmethyl)-amine Dihydrochloride], the MIC is at most 2 µg/mL.

Consider `COc1ccc2ncc(F)c(CCN3CCC(NC(=O)c4ccc5c(n4)NC(=O)CS5)CC3)c2c1.Cl` [Example 95, N-(1-{2-[3-fluoro-6-(methoxy)-4-quinolinyl]ethyl}-4-piperidinyl)3-oxo-3,4-dihydro-2H-pyrido[3,2-b][1,4]thiazine-6-carboxamide hydrochloride], for which the MIC is at most 2 µg/mL.

Take `COc1ccc2ncc(F)c(CCN3CCC(NCc4ccc5c(n4)NC(=O)CS5)CC3)c2n1.Cl.Cl` [Example 59, 6-{[(1-{2-[3-Fluoro-6-(methoxy)-1,5-naphthyridin-4-yl]ethyl}-4-piperidinyl)amino]methyl}-2H-pyrido[3,2-b][1,4]thiazin-3(4H)-one dihydrochloride]: the MIC was at most 2 µg/mL.

Regarding `COc1ccc2ncc(Cl)c(C(CO)CN3CCC(NCc4ccc5c(n4)NC(=O)CS5)CC3)c2n1.Cl.Cl` (stereo not drawn) [Example 105, 6-{[(1-{2-[3-chloro-6-(methoxy)-1,5-naphthyridin-4-yl]-3-hydroxypropyl}-4-piperidinyl)amino]methyl}-2H-pyrido[3,2-b][1,4]thiazin-3(4H)-one dihydrochloride], the MIC is at most 2 µg/mL.

In the case of `COc1ccc2ncc(F)c(CCN3CCC(NCc4cc5c(nn4)SCC(=O)N5)CC3)c2n1.Cl.Cl` [Example 58, 3-{[(1-{2-[3-fluoro-6-(methoxy)-1,5-naphthyridin-4-yl]ethyl}-4-piperidinyl)amino]methyl}-5H-pyridazino[3,4-b][1,4]thiazin-6(7H)-one dihydrochloride], the MIC was at most 2 µg/mL.

As to `COc1ccc2ncc(F)c(CCN3CC[C@@H](NCc4cc5c(cn4)OCCO5)[C@H](O)C3)c2c1.Cl.Cl` (relative stereo) [Example 117, trans-4-[(2,3-dihydro[1,4]dioxino[2,3-c]pyridin-7-ylmethyl)amino]-1-{2-[3-fluoro-6-(methoxy)-4-quinolinyl]ethyl}-3-piperidinol dihydrochloride], the MIC was at most 2 µg/mL.

On to `COc1cc(F)c2ncc(Cl)c(CCN3CC[C@H](NCc4ccc5c(n4)NC(=O)CS5)[C@H](F)C3)c2c1.Cl.Cl` (single isomer, unassigned; enantiomer 1) [Example 142, cis-6-{[(1-{2-[3-chloro-8-fluoro-6-(methoxy)-4-quinolinyl]ethyl}-3-fluoro-4-piperidinyl)amino]methyl}-2H-pyrido[3,2-b][1,4]thiazin-3(4H)-one dihydrochloride Enantiomer 1], for which the MIC was at most 2 µg/mL.

Turning to `COc1ccc2ncc(Cl)c(CCN3CC[C@@H](NCc4ccc5c(n4)NC(=O)CO5)[C@H](O)C3)c2n1.Cl.Cl.Cl` (single isomer, unassigned; enantiomer 1) [Example 153, trans-6-({1-[2-(3-Chloro-6-methoxy-[1,5]naphthyridin-4-yl)-ethyl]-3-hydroxy-piperidin-4-ylamino}-methyl)-4H-pyrido[3,2-b][1,4] oxazin-3-one trihydrochloride Enantiomer 1], the MIC is at most 2 µg/mL.

With `COc1ccc2ncc(Cl)c(CCN3CC[C@@H](NCc4ccc5c(n4)NC(=O)CS5)[C@H](O)C3)c2n1.Cl.Cl` (single isomer, unassigned; enantiomer 2) [Example 39, (trans)-6-({1-[2-(3-Chloro-6-methoxy-[1,5]naphthyridin-4-yl)-ethyl]-3-hydroxy-piperidin-4-ylamino}-methyl)-4H-pyrido[3,2-b][1,4]-thiazin-3-one Dihydrochloride Enantiomer 2], the MIC is at most 2 µg/mL.

As to `Cc1ccc2ncc(Cl)c(CCN3CCC(NCc4ccc5c(n4)NC(=O)CS5)CC3)c2n1.Cl.Cl` [Example 23, 6-({1-[2-(3-Chloro-6-methyl-[1,5]naphthyridin-4-yl)-ethyl]-piperidin-4-ylamino}-methyl)-4H-pyrido[3,2-b][1,4]thiazin-3-one Dihydrochloride], the MIC was at most 2 µg/mL.

Turning to `COc1cc(F)c2ncc(F)c(CCN3CC[C@H](NCc4cc5c(cn4)OCCO5)[C@H](F)C3)c2c1.Cl.Cl` (single isomer, unassigned; enantiomer 2) [Example 144, cis-1-{2-[3,8-difluoro-6-(methoxy)-4-quinolinyl]ethyl}-N-(2,3-dihydro[1,4]dioxino[2,3-c]pyridin-7-ylmethyl)-3-fluoro-4-piperidinamine dihydrochloride Enantiomer 2], the MIC was at most 2 µg/mL.

Take `COc1cc(F)c2ncc(F)c(CCN3CCC(NCc4cc5c(cn4)OCO5)CC3)c2c1.Cl.Cl` [Example 51, 1-{2-[3,8-difluoro-6-(methoxy)-4-quinolinyl]ethyl}-N-([1,3]dioxolo[4,5-c]pyridin-6-ylmethyl)-4-piperidinamine dihydrochloride]: the MIC is at most 2 µg/mL.

`COc1ccc2ncc(F)c(CCN3CC[C@H](NCc4cc5c(cn4)OCCO5)[C@H](O)C3)c2c1.Cl.Cl.Cl.Cl` (single isomer, unassigned; enantiomer 1) [Example 34, cis-4-[(2,3-Dihydro-[1,4]dioxino[2,3-c]pyridin-7-ylmethyl)-amino]-1-[2-(3-fluoro-6-methoxy-quinolin-4-yl)-ethyl]-piperidin-3-ol dihydrochloride dihydrochloride Enantiomer 1]: the MIC was at most 2 µg/mL.

Take `COc1ccc2ncc(F)c(CCN3CCC(C)(NC(=O)c4ccc5c(n4)NC(=O)CS5)CC3)c2n1` [Example 168, N-(1-{2-[3-fluoro-6-(methoxy)-1,5-naphthyridin-4-yl]ethyl}-4-methyl-4-piperidinyl)-3-oxo-3,4-dihydro-2H-pyrido[3,2-b][1,4]thiazine-6-carboxamide]: the MIC was at most 2 µg/mL.

`COc1c(F)ccc2ncc(Cl)c(CCN3CCC(NCc4cc5c(cn4)OCCO5)CC3)c12.Cl.Cl` [Example 110, 1-{2-[3-chloro-6-fluoro-5-(methoxy)-4-quinolinyl]ethyl}-N-(2,3-dihydro[1,4]dioxino[2,3-c]pyridin-7-ylmethyl)-4-piperidinamine dihydrochloride]: the MIC was at most 2 µg/mL.
